Several values for one entry are separate records, joined by “and”; a condition that tells them apart may be missing. Identical values can stand only once. Toxic doses and inconclusive results are not listed. Rule as the data show it: active = T/C of 150% or more; inactive = T/C below 125%.
Tested on: L1210 leukemia ip in BDF1 mice, survival T/C
Test: NCI In Vivo Anticancer Drug Screen. Data for tumor model L1210 Leukemia (intraperitoneal) in B6D2F1 (BDF1) mice
Details: endpoint: mean survival time, higher = longer survival
Method in brief: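 In this screen, tumor-bearing mice given compound are compared to those given vehicle, and their survival values are reported as a treated-to-control quotient.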

[1] = dose: 100.0 mg/kg/injection, schedule: Q04DX002 (ip), vehicle: saline with Tween-80
[2] = dose: 200.0 mg/kg/injection, schedule: Q04DX002 (ip), vehicle: saline with Tween-80
[3] = dose: 400.0 mg/kg/injection, schedule: Q04DX002 (ip), vehicle: saline with Tween-80
[4] = dose: 100.0 mg/kg/injection, schedule: Q01DX009 (ip), vehicle: saline with Tween-80
[5] = dose: 100.0 mg/kg/injection, schedule: Q04DX003 (ip), vehicle: saline with Tween-80
[6] = dose: 200.0 mg/kg/injection, schedule: Q01DX009 (ip), vehicle: saline with Tween-80
[7] = dose: 200.0 mg/kg/injection, schedule: Q04DX003 (ip), vehicle: saline with Tween-80
[8] = dose: 400.0 mg/kg/injection, schedule: Q04DX003 (ip), vehicle: saline with Tween-80
[9] = dose: 100.0 mg/kg/injection, schedule: Q01DX009 (ip), vehicle: Klucel (hydroxypropylcellulose) (HPC)
[10] = dose: 50.0 mg/kg/injection, schedule: Q01DX009 (ip), vehicle: saline with Tween-80
[11] = dose: 100.0 mg/kg/injection, schedule: Q04DX003 (ip), vehicle: Klucel (hydroxypropylcellulose) (HPC)

Measured: T/C

O=Cc1ccsc1
inactive: [1] 90 % of control | [2] 97 % of control | [3] 101 % of control

O=C(Cl)c1cccc2c1sc1ccccc12
inactive: [4] 102 % of control | [5] 97 % of control | [6] 102 % of control | [7] 98 % of control | dose: 400.0 mg/kg/injection, schedule: Q01DX009 (ip), vehicle: saline with Tween-80 100 % of control | [8] 98 % of control

Cc1ccnc(NS(=O)(=O)c2ccc(N=[N+]=[N-])cc2)n1
inactive: dose: 100.0 mg/kg/injection, schedule: Q01DX009 (ip), vehicle: carboxymethylcellulose (CMC) 92 % of control and 91 % of control | dose: 100.0 mg/kg/injection, schedule: Q04DX002 (ip), vehicle: carboxymethylcellulose (CMC) 98 % of control | dose: 200.0 mg/kg/injection, schedule: Q01DX009 (ip), vehicle: carboxymethylcellulose (CMC) 95 % of control | dose: 200.0 mg/kg/injection, schedule: Q04DX002 (ip), vehicle: carboxymethylcellulose (CMC) 93 % of control and 98 % of control | dose: 400.0 mg/kg/injection, schedule: Q01DX009 (ip), vehicle: carboxymethylcellulose (CMC) 97 % of control and 102 % of control | dose: 400.0 mg/kg/injection, schedule: Q04DX002 (ip), vehicle: carboxymethylcellulose (CMC) 101 % of control and 105 % of control

CCCCCCCCC(=O)Nc1ccc(O)cc1
inactive: dose: 100.0 mg/kg/injection, schedule: Q01DX009 (ip), vehicle: gum acacia 97 % of control | dose: 100.0 mg/kg/injection, schedule: Q04DX003 (ip), vehicle: gum acacia 104 % of control | dose: 200.0 mg/kg/injection, schedule: Q01DX009 (ip), vehicle: gum acacia 105 % of control | dose: 200.0 mg/kg/injection, schedule: Q04DX003 (ip), vehicle: gum acacia 88 % of control | dose: 400.0 mg/kg/injection, schedule: Q01DX009 (ip), vehicle: gum acacia 112 % of control | dose: 400.0 mg/kg/injection, schedule: Q04DX003 (ip), vehicle: gum acacia 102 % of control

CCCCC1C(=O)N=C2C=CC=CN2C1=O (stereo not drawn)
inactive: dose: 25.0 mg/kg/injection, schedule: Q01DX009 (ip), vehicle: Klucel (hydroxypropylcellulose) (HPC) 102 % of control | dose: 50.0 mg/kg/injection, schedule: Q01DX009 (ip), vehicle: Klucel (hydroxypropylcellulose) (HPC) 100 % of control | [9] 110 % of control | dose: 100.0 mg/kg/injection, schedule: Q04DX003 (ip), vehicle: other 104 % of control | dose: 200.0 mg/kg/injection, schedule: Q04DX003 (ip), vehicle: other 102 % of control

CCN(CC)CCOc1ccc(C(C)(C)c2ccc(OCCN(CC)CC)cc2)cc1
inactive: dose: 100.0 mg/kg/injection, schedule: Q04DX002 (ip), vehicle: saline 108 % of control | dose: 200.0 mg/kg/injection, schedule: Q04DX002 (ip), vehicle: saline 108 % of control

O=C(O)C1=CCC=CC1
inactive: [5] 98 % of control | [7] 109 % of control | [8] 106 % of control

O=C(NCCCCCCCCNC(=O)N1CC1)N1CC1
inactive: dose: 0.19 mg/kg/injection, schedule: Q01DX009 (ip), vehicle: carboxymethylcellulose (CMC) 101 % of control | dose: 0.29 mg/kg/injection, schedule: Q01DX001 (ip), vehicle: carboxymethylcellulose (CMC) 98 % of control | dose: 0.29 mg/kg/injection, schedule: Q01DX009 (ip), vehicle: carboxymethylcellulose (CMC) 113 % of control | dose: 0.44 mg/kg/injection, schedule: Q01DX001 (ip), vehicle: carboxymethylcellulose (CMC) 95 % of control | dose: 0.44 mg/kg/injection, schedule: Q01DX009 (ip), vehicle: carboxymethylcellulose (CMC) 111 % of control | dose: 0.66 mg/kg/injection, schedule: Q01DX001 (ip), vehicle: carboxymethylcellulose (CMC) 96 % of control | dose: 0.66 mg/kg/injection, schedule: Q01DX009 (ip), vehicle: carboxymethylcellulose (CMC) 108 % of control | dose: 1.0 mg/kg/injection, schedule: Q01DX001 (ip), vehicle: carboxymethylcellulose (CMC) 101 % of control | dose: 1.0 mg/kg/injection, schedule: Q01DX009 (ip), vehicle: carboxymethylcellulose (CMC) 119 % of control | dose: 1.5 mg/kg/injection, schedule: Q01DX009 (ip), vehicle: carboxymethylcellulose (CMC) 109 % of control | dose: 2.25 mg/kg/injection, schedule: Q01DX009 (ip), vehicle: carboxymethylcellulose (CMC) 112 % of control | dose: 6.2 mg/kg/injection, schedule: Q01DX001 (ip), vehicle: carboxymethylcellulose (CMC) 102 % of control

C(=C\c1nc2ccccc2[nH]1)/c1nc2ccccc2[nH]1
inactive: dose: 50.0 mg/kg/injection, schedule: Q01DX001 (ip), vehicle: saline 108 % of control | dose: 100.0 mg/kg/injection, schedule: Q01DX001 (ip), vehicle: saline 96 % of control | dose: 200.0 mg/kg/injection, schedule: Q01DX001 (ip), vehicle: saline 96 % of control | dose: 400.0 mg/kg/injection, schedule: Q01DX001 (ip), vehicle: saline 106 % of control

CCCCCCCCCCCCCCCCCC(=O)N/N=C/c1ccc(OCC)c(OC)c1
inactive: [9] 86 % of control | dose: 200.0 mg/kg/injection, schedule: Q01DX009 (ip), vehicle: Klucel (hydroxypropylcellulose) (HPC) 91 % of control | dose: 400.0 mg/kg/injection, schedule: Q01DX009 (ip), vehicle: Klucel (hydroxypropylcellulose) (HPC) 88 % of control

CCOC(=O)C(C#N)C1c2ccccc2Nc2ccccc21 (stereo not drawn)
inactive: [10] 98 % of control | [4] 95 % of control | [6] 91 % of control

O=C1C(=O)c2cc(Br)ccc2-c2ccc(Br)cc21
inactive: dose: 50.0 mg/kg/injection, schedule: Q01DX001 (ip), vehicle: carboxymethylcellulose (CMC) 107 % of control | dose: 100.0 mg/kg/injection, schedule: Q01DX001 (ip), vehicle: carboxymethylcellulose (CMC) 107 % of control | dose: 200.0 mg/kg/injection, schedule: Q01DX001 (ip), vehicle: carboxymethylcellulose (CMC) 100 % of control | dose: 400.0 mg/kg/injection, schedule: Q01DX001 (ip), vehicle: carboxymethylcellulose (CMC) 89 % of control

Cc1cc2nc(CN)[nH]c2cc1C
inactive: dose: 50.0 mg/kg/injection, schedule: Q01DX009 (ip), vehicle: saline 98 % of control | dose: 100.0 mg/kg/injection, schedule: Q01DX009 (ip), vehicle: saline 98 % of control | dose: 200.0 mg/kg/injection, schedule: Q01DX009 (ip), vehicle: saline 93 % of control

CC(=O)OC(c1ccccc1)c1ccccn1 (stereo not drawn)
inactive: [10] 105 % of control | [4] 98 % of control | [6] 94 % of control

COc1cccc(C=NC2CC(C)CCC2C)c1OC (stereo not drawn)
inactive: dose: 50.0 mg/kg/injection, schedule: Q04DX002 (ip), vehicle: saline with Tween-80 90 % of control | [1] 93 % of control | [2] 87 % of control | [3] 90 % of control

CCOC(=O)C1(C(=O)OCC)C(C)CC(O)N1C(=O)c1cc2c(cc1[N+](=O)[O-])OCO2 (stereo not drawn)
inactive: dose: 25.0 mg/kg/injection, schedule: Q04DX003 (ip), vehicle: Klucel (hydroxypropylcellulose) (HPC) 94 % of control | dose: 50.0 mg/kg/injection, schedule: Q04DX003 (ip), vehicle: Klucel (hydroxypropylcellulose) (HPC) 94 % of control | [11] 89 % of control

CCOC(=O)c1[nH]c(-c2ccccc2)c(C(=O)OCC)c1-c1ccccc1
inactive: [11] 100 % of control | dose: 200.0 mg/kg/injection, schedule: Q04DX003 (ip), vehicle: Klucel (hydroxypropylcellulose) (HPC) 103 % of control | dose: 400.0 mg/kg/injection, schedule: Q04DX003 (ip), vehicle: Klucel (hydroxypropylcellulose) (HPC) 115 % of control
